Experimental data as given in US11051515B2, “3-acyl-benzamides and their use as herbicides” (Bayer Aktiengesellschaft, priority 2017, dated 2021).

Key:
ABUTH [1] = assay: Post-emergence action against ABUTH; format: in vivo, Abutilon theophrasti; details: post-emergence, dosage 80 g/ha, visual assessment about 3 weeks after treatment vs untreated controls
How it was run: (§1)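 Weeds grown in sandy loam in greenhouse, treated at one-leaf stage (2–3 weeks after sowing) with WP or EC formulations sprayed as aqueous suspension/emulsion at 600 to […] water with 0.2% wetting agent. Visual rating after about 3 weeks versus untreated controls, as % herbicidal action (100% = plants dead, 0% = like control).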

ABUTH [2] = assay: Pre-emergence action against ABUTH; format: in vivo, Abutilon theophrasti; details: pre-emergence, dosage 320 g/ha, scored visually after 3 weeks vs untreated controls
How it was run: (§2)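 Seeds sown in sandy loam in wood-fiber pots and covered with soil. Greenhouse growth; visual damage scored after 3 weeks versus untreated controls (100% = dead, 0% = like control).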

MATIN [3] = assay: Pre-emergence action against MATIN; format: in vivo, Matricaria inodora; details: Dosage 320 g/ha, pre-emergence
How it was run: as §2

AMARE [4] = assay: Post-emergence action against AMARE; format: in vivo, Amaranthus retroflexus; details: post-emergence, dosage 80 g/ha, visual assessment about 3 weeks after treatment vs untreated controls
How it was run: as §1

STEME [5] = assay: Pre-emergence action against STEME; format: in vivo, Stellaria media; details: Dosage 320 g/ha, pre-emergence
How it was run: as §2

DIGSA = assay: Pre-emergence action against DIGSA; format: in vivo, Digitaria sanguinalis; details: dosage 320 g/ha, scored visually after 3 weeks vs untreated controls
Text: (§3) Seeds of monocotyledonous and dicotyledonous weed plants and crop plants are laid out in sandy loam soil in wood-fiber pots and covered with soil. The compounds of the invention, formulated in the form of wettable powders (WP) or as emulsion concentrates (EC), are then applied to the surface of the covering soil in the form of an aqueous suspension or emulsion at a water application rate equating to […], with addition of 0.2% wetting agent. After the treatment, the pots are placed in a greenhouse and kept under good growth conditions for the trial plants. The damage to the test plants is scored visually after a test period of 3 weeks by comparison with untreated controls (herbicidal activity in percent (%): 100% activity=the plants have died, 0% activity=like control plants).

STEME [6] = assay: Post-emergence action against STEME; format: in vivo, Stellaria media; details: post-emergence, dosage 80 g/ha
How it was run: as §1

VIOTR [7] = assay: Pre-emergence action against VIOTR; format: in vivo, Viola tricolor; details: Dosage 320 g/ha, pre-emergence
How it was run: as §2

AVEFA = assay: Pre-emergence action against AVEFA; format: in vivo, Avena fatua; details: dosage 320 g/ha, scored visually after 3 weeks vs untreated controls
How it was run: as §2

AMARE [8] = assay: Pre-emergence action against AMARE; format: in vivo, Amaranthus retroflexus; details: pre-emergence, dosage 320 g/ha, scored visually after 3 weeks vs untreated controls
How it was run: as §2

VERPE [9] = assay: Pre-emergence action against VERPE; format: in vivo, Veronica persica; details: Dosage 320 g/ha, pre-emergence
How it was run: as §2

PHBPU [10] = assay: Post-emergence action against PHBPU; format: in vivo, Pharbitis purpurea; details: post-emergence, dosage 80 g/ha
How it was run: as §1

MATIN [11] = assay: Post-emergence action against MATIN; format: in vivo, Matricaria inodora; details: post-emergence, dosage 80 g/ha, visual assessment about 3 weeks after treatment vs untreated controls
How it was run: as §1

ECHCG [12] = assay: Pre-emergence action against ECHCG; format: in vivo, Echinochloa crus-galli; details: pre-emergence, dosage 320 g/ha, scored visually after 3 weeks vs untreated controls
How it was run: as §2

PHBPU [13] = assay: Pre-emergence action against PHBPU; format: in vivo, Pharbitis purpurea; details: Dosage 320 g/ha, pre-emergence
How it was run: as §2

SETVI [14] = assay: Pre-emergence action against SETVI; format: in vivo, Setaria viridis; details: pre-emergence, dosage 320 g/ha, scored visually after 3 weeks vs untreated controls
How it was run: as §2

ECHCG [15] = assay: Post-emergence action against ECHCG; format: in vivo, Echinochloa crus-galli; details: post-emergence, dosage 80 g/ha, visual assessment about 3 weeks after treatment vs untreated controls
How it was run: as §1

VIOTR [16] = assay: Post-emergence action against VIOTR; format: in vivo, Viola tricolor; details: post-emergence, dosage 80 g/ha
How it was run: as §1

POLCO [17] = assay: Post-emergence action against POLCO; format: in vivo, Polygonum convolvulus; details: Fallopia convolvulus, 504 h; post-emergence, dosage 80 g/ha
How it was run: as §1

SETVI [18] = assay: Post-emergence action against SETVI; format: in vivo, Setaria viridis; details: Setaria viridis, 504 h; post-emergence, dosage 80 g/ha, visual assessment about 3 weeks after treatment vs untreated controls; read-out: Post-emergence action against SETVI (herbicidal action in percent)
How it was run: as §1

HORMU = assay: Pre-emergence action against HORMU; format: in vivo, Hordeum murinum; details: Hordeum murinum, 504 h, Dosage 320 g/ha
Text: as §3

ALOMY [19] = assay: Post-emergence action against ALOMY; format: in vivo, Alopecurus myosuroides; details: Alopecurus myosuroides, 504 h; Dosage 80 g/ha, post-emergence
How it was run: as §1

LOLRI = assay: Pre-emergence action against LOLRI; format: in vivo, Lolium rigidum; details: Lolium rigidum, 504 h, dosage 320 g/ha, scored visually after 3 weeks vs untreated controls, read-out: Pre-emergence action against LOLRI (herbicidal activity)
How it was run: as §2

VERPE [20] = assay: Post-emergence action against VERPE; format: in vivo, Veronica persica; details: Veronica persica, 504 h, dosage 80 g/ha
How it was run: as §1

POLCO [21] = assay: Pre-emergence action against POLCO; format: in vivo, Polygonum convolvulus; details: Fallopia convolvulus, 504 h; Dosage 320 g/ha, pre-emergence
How it was run: as §2

CYPES = assay: Post-emergence action against CYPES; format: in vivo, Cyperus esculentus; details: Cyperus esculentus, 504 h; post-emergence, dosage 80 g/ha, visual assessment about 3 weeks after treatment vs untreated controls; read-out: Post-emergence action against CYPES (herbicidal action in percent)
How it was run: as §1

ALOMY [22] = assay: Pre-emergence action against ALOMY; format: in vivo, Alopecurus myosuroides; details: Alopecurus myosuroides, 504 h; dosage 320 g/ha; pre-emergence; scored visually after 3 weeks vs untreated controls; 100% = plants have died, 0% = like control plants; read-out: Pre-emergence action against ALOMY (herbicidal activity in percent)
How it was run: as §2

## CSc1c(C(=O)Nc2nnnn2C)ccc(C(F)(F)F)c1C(=O)C1CCCCC1 [1-286]
ABUTH [1]
  Post-emergence action against ABUTH (herbicidal action in percent): 90%
ABUTH [2]
  Pre-emergence action against ABUTH (herbicidal activity): 100%
MATIN [3]
  Pre-emergence action against MATIN: 90%
AMARE [4]
  Post-emergence action against AMARE (herbicidal action in percent): 90%
STEME [5]
  Pre-emergence action against STEME: 90%
DIGSA
  Pre-emergence action against DIGSA (herbicidal activity): 100%
STEME [6]
  Post-emergence action against STEME: 90
VIOTR [7]
  Pre-emergence action against VIOTR: 100%
AVEFA
  Pre-emergence action against AVEFA (herbicidal activity): 90%
AMARE [8]
  Pre-emergence action against AMARE (herbicidal activity): 100%
VERPE [9]
  Pre-emergence action against VERPE: 90%

## CCCn1nnnc1NC(=O)c1ccc(C(F)(F)F)c(C(=O)C2CCCCC2)c1SC [3-281]
ABUTH [2]
  Pre-emergence action against ABUTH (herbicidal activity): 100%
AMARE [4]
  Post-emergence action against AMARE (herbicidal action in percent): 80%
STEME [5]
  Pre-emergence action against STEME: 90%
DIGSA
  Pre-emergence action against DIGSA (herbicidal activity): 80%
VIOTR [7]
  Pre-emergence action against VIOTR: 100%
AMARE [8]
  Pre-emergence action against AMARE (herbicidal activity): 80%

## Cn1nnnc1NC(=O)c1ccc(C(F)(F)F)c(C(=O)C2CCCCC2)c1Cl [1-155]
ABUTH [1]
  Post-emergence action against ABUTH (herbicidal action in percent): 90%
ABUTH [2]
  Pre-emergence action against ABUTH (herbicidal activity): 100%
MATIN [3]
  Pre-emergence action against MATIN: 90%
AMARE [4]
  Post-emergence action against AMARE (herbicidal action in percent): 90%
STEME [5]
  Pre-emergence action against STEME: 90%
PHBPU [10]
  Post-emergence action against PHBPU: 80
DIGSA
  Pre-emergence action against DIGSA (herbicidal activity): 90%
STEME [6]
  Post-emergence action against STEME: 80
VIOTR [7]
  Pre-emergence action against VIOTR: 100%
AMARE [8]
  Pre-emergence action against AMARE (herbicidal activity): 80%
MATIN [11]
  Post-emergence action against MATIN (herbicidal action in percent): 80%

## CCn1nnnc1NC(=O)c1ccc(C(F)(F)F)c(C(=O)C2CCCCC2)c1Cl [2-155]
ECHCG [12]
  Pre-emergence action against ECHCG (herbicidal activity): 80%
ABUTH [2]
  Pre-emergence action against ABUTH (herbicidal activity): 100%
MATIN [3]
  Pre-emergence action against MATIN: 100%
AMARE [4]
  Post-emergence action against AMARE (herbicidal action in percent): 80%
STEME [5]
  Pre-emergence action against STEME: 100%
DIGSA
  Pre-emergence action against DIGSA (herbicidal activity): 90%
VIOTR [7]
  Pre-emergence action against VIOTR: 100%
AMARE [8]
  Pre-emergence action against AMARE (herbicidal activity): 100%
VERPE [9]
  Pre-emergence action against VERPE: 80%

## CCCn1nnnc1NC(=O)c1ccc(C(F)(F)F)c(C(=O)C(F)F)c1Cl [3-163]
ABUTH [1]
  Post-emergence action against ABUTH (herbicidal action in percent): 80%
ABUTH [2]
  Pre-emergence action against ABUTH (herbicidal activity): 100%
PHBPU [13]
  Pre-emergence action against PHBPU: 80%
SETVI [14]
  SETVI (Table B8, pre-emergence herbicidal activity): 100%
MATIN [3]
  Pre-emergence action against MATIN: 100%
AMARE [4]
  Post-emergence action against AMARE (herbicidal action in percent): 100%
STEME [5]
  Pre-emergence action against STEME: 90%
PHBPU [10]
  Post-emergence action against PHBPU: 90
DIGSA
  Pre-emergence action against DIGSA (herbicidal activity): 100%
ECHCG [15]
  Post-emergence action against ECHCG (herbicidal action in percent): 80%
STEME [6]
  Post-emergence action against STEME: 100
VIOTR [7]
  Pre-emergence action against VIOTR: 100%
VIOTR [16]
  Post-emergence action against VIOTR: 80
AMARE [8]
  Pre-emergence action against AMARE (herbicidal activity): 100%
MATIN [11]
  Post-emergence action against MATIN (herbicidal action in percent): 90%

## CSc1c(C(=O)Nc2nnnn2C)ccc(C(F)F)c1C(C)=O [1-65]
ABUTH [1]; Abutilon theophrasti, 504 h, read-out: Post-emergence action against ABUTH (herbicidal action in percent)
  pest or weed control at 80 g/ha: 100%
POLCO [17]
  pest or weed control at 80 g/ha: 100%
ECHCG [12]; Echinochloa crus-galli, 504 h, read-out: Pre-emergence action against ECHCG (herbicidal activity)
  pest or weed control at 320 g/ha: 100%
ABUTH [2]; Abutilon theophrasti, 504 h, read-out: Pre-emergence action against ABUTH (herbicidal activity)
  pest or weed control at 320 g/ha: 100%
SETVI [18]
  pest or weed control at 80 g/ha: 100%
HORMU
  pest or weed control at 320 g/ha: 90%
ALOMY [19]
  pest or weed control at 80 g/ha: 80%
LOLRI
  pest or weed control at 320 g/ha: 80%
PHBPU [13]; Ipomoea purpurea, 504 h
  pest or weed control at 320 g/ha: 100%
SETVI [14]; Setaria viridis, 504 h, read-out: SETVI (Table B8, pre-emergence herbicidal activity)
  pest or weed control at 320 g/ha: 100%
MATIN [3]; Tripleurospermum inodorum, 504 h
  pest or weed control at 320 g/ha: 100%
AMARE [4]; Amaranthus retroflexus, 504 h, read-out: Post-emergence action against AMARE (herbicidal action in percent)
  pest or weed control at 80 g/ha: 100%
STEME [5]; Stellaria media, 504 h
  pest or weed control at 320 g/ha: 100%
PHBPU [10]; Ipomoea purpurea, 504 h
  pest or weed control at 80 g/ha: 100%
ECHCG [15]; Echinochloa crus-galli, 504 h, read-out: Post-emergence action against ECHCG (herbicidal action in percent)
  pest or weed control at 80 g/ha: 100%
STEME [6]; Stellaria media, 504 h
  pest or weed control at 80 g/ha: 100%
VIOTR [7]; Viola tricolor, 504 h
  pest or weed control at 320 g/ha: 100%
AVEFA; Avena fatua, 504 h, read-out: Pre-emergence action against AVEFA (herbicidal activity)
  pest or weed control at 320 g/ha: 100%
VERPE [20]
  pest or weed control at 80 g/ha: 100%
VIOTR [16]; Viola tricolor, 504 h
  pest or weed control at 80 g/ha: 100%
POLCO [21]
  pest or weed control at 320 g/ha: 100%
AMARE [8]; Amaranthus retroflexus, 504 h, read-out: Pre-emergence action against AMARE (herbicidal activity)
  pest or weed control at 320 g/ha: 100%
VERPE [9]; Veronica persica, 504 h
  pest or weed control at 320 g/ha: 100%
CYPES
  pest or weed control at 80 g/ha: 90%
MATIN [11]; Tripleurospermum inodorum, 504 h, read-out: Post-emergence action against MATIN (herbicidal action in percent)
  pest or weed control at 80 g/ha: 100%
ALOMY [22]
  pest or weed control at 320 g/ha: 100%
